Measurements: patent EP4653001A1, “TREATMENT, DIAGNOSIS AND/OR PROGNOSIS OF MITOCHONDRIAL DISEASES” (Universidad Autónoma de Madrid, priority 2024, dated 2025)

How the values were obtained:
Format in all cases: cell-based
143B cells = experiment: Stable isotope tracing with uniformly labeled 13C-glucose
Description: 1-5.0×10^6 cells were harvested on dry ice with 1 mL pre-chilled 80% HPLC-grade methanol (Fluka Analytical). The cell mixture was incubated for 15 min on dry ice prior to centrifugation at 18,000 × g for 10 min at 4°C. The supernatant was retained, and the remaining cell pellet was resuspended in 800 µL chilled 80% methanol and centrifuged. Supernatant was combined with the previous retention and was lyophilized using a SpeedVac (Thermo Fisher). Lyophilized samples were resuspended in 20 µL ultrapure water and subjected to metabolomics profiling using the AB/SCIEX 5500 QTRAP triple quadrupole instrument. Data analysis was performed using the GiTools software. […]
Encouraged by the beneficial effects of ME1 and because ME1-dependent NADPH production is linked to intracellular malate levels, we sought to investigate the metabolic pathways and nutrients that maintain malate production upon disruption of the ETC. It is firmly believed that in cells and tissues with defective ETC function, elevated NADH/NAD+ ratio inhibits the Pyruvate dehydrogenase complex (PDC), suppressing pyruvate entry into the mitochondria and forcing its channelling towards the Lactate Dehydrogenase (LDH) in the cytosol. […] This reaction involves addition of an unlabeled carbon by IDH2 acting in reverse relative to the canonical oxidative TCA cycle. Malate M+3 also rose more than a ~2-fold in CI-inhibited cells and was likely formed after cleavage of citrate M+5 by ATP-citrate lyase (ACLY) since this induction was blunted in ACLY KO cells. […] We hypothesized that an alternative mechanism could involve pyruvate entry into the mitochondria where it can be carboxylated to OAA by the pyruvate carboxylase (PC). […] To examine the contribution of PC to malate formation in the context of ETC dysfunction, control and PC KO cells were cultured with uniformly labeled [^13C]glucose and treated either with DMSO or Piericidin. In this labeling scheme, oxidative metabolism of glucose-derived pyruvate would give rise to TCA cycle intermediates with M+2 labeling as CO2 is removed during conversion of pyruvate to acetyl-CoA by pyruvate dehydrogenase (PDH). By contrast, carbon labels are retained if pyruvate is carboxylated by PC and would generate M+3 intermediates (Figure 3A). […] Malate and aspartate M+3/M+2 ratios, which reflect the relative contribution of PC versus PDH to metabolite labeling, were ~7-fold and ~10-fold higher respectively, in cells treated with Piericidin (Figure 3B and C). […] In this regard, it is not surprising that PC activity is favoured over PDH when the ETC is defective as it is not regulated by NADH levels.

mouse cortical neurons [1] = experiment: ATP measurement in neurons (ATP Assay Kit); details: CI-inhibited neurons, 100 nM, 24 h
Description: (§1) Primary cultures of C57BL/6 mouse cortical neurons were prepared from embryos between embryonic days 16.5 and 17.5 and seeded onto pre-treated plates coated with Poly-L-lysine hydrobromide (500 µg/ml). We used Neurobasal medium without D-glucose and sodium pyruvate (ThermoFisher) to modulate D-glucose levels, depending on the experiment (2.5 mM, 5 mM, or 25 mM).
(§2) In standard experiments, we utilized Neurobasal medium with 25 mM D-glucose, 1 mM sodium pyruvate (ThermoFisher), B27 plus supplement (GIBCO), GlutaMax I 100X (GIBCO), and 1% penicillin/streptomycin (P/S). Starting from day 6 in vitro (DIV6), half of the medium was replaced every 3-4 days, omitting GlutaMax I.
ATP Assay Kit (Abcam, #ab83355) was used to analyze ATP levels. Briefly, Cells were seeded in M24 plates (neurons at 500,000 cells/mL and monolayer density for astrocytes), and for the ATP experiments, three wells per condition were combined. An alternative deproteinization protocol was applied to purify the samples, and a Colorimetric Assay was conducted as outlined in the original protocol. The measurements were obtained using the CLARIOstar Plus plate reader from BMG LABTECH.

mouse cortical neurons [2] = experiment: NADPH/NADP+ levels in neurons (NADP/NADPH-Glo); details: CI-inhibited neurons
Description: as §1, §2
The NADP/NADP-Glo™ Assay (Promega) was employed to assess the NADP/NADPH ratio in cultured cells, following the manufacturer's instructions (Technical Bulletin Number TM400). This bioluminescent assay can detect both total oxidized and reduced nicotinamide adenine dinucleotide phosphates (NADP+ and NADPH) and determine their ratio.
Cells were cultured in 24-well plates (Falcon®) at varying concentrations depending on the cell type and the specific experiment. After removing the media, we added 100 µl of PBS 1X per well and lysed the cells by introducing 100 µl of a base solution with 1% DTAB (1:1 ratio). […] Luminescence was measured using the CLARIOstar Plus plate reader from BMG LABTECH.

PC KO and ACLY KO cells = experiment: Intracellular malate levels in PC KO and ACLY KO 143B cells; details: double ablation of PC and ACLY, 100 nM, 72 h
Description: 1-5.0×10^6 cells were harvested on dry ice with 1 mL pre-chilled 80% HPLC-grade methanol (Fluka Analytical). The cell mixture was incubated for 15 min on dry ice prior to centrifugation at 18,000 × g for 10 min at 4°C. The supernatant was retained, and the remaining cell pellet was resuspended in 800 µL chilled 80% methanol and centrifuged. Supernatant was combined with the previous retention and was lyophilized using a SpeedVac (Thermo Fisher). Lyophilized samples were resuspended in 20 µL ultrapure water and subjected to metabolomics profiling using the AB/SCIEX 5500 QTRAP triple quadrupole instrument. Data analysis was performed using the GiTools software. 13C-labeled glutamine and glucose was acquired in SIGMA (605166 and 389374).
To assess the relative contribution of PC and ACLY to cell death phenotype in ETC deficient cells upon PPP inhibition, we treated PC KO and ACLY KO cells with Piericidin, G6PDi or both. […] A plausible explanation for the lack of phenotype in both PC and ACLY KO cells could be the upregulation of compensatory mechanisms whereby PC depletion would cause an enhanced rerouting of glutamine through ACLY and vice versa. […]

[3] = uniformly labeled [13C]glucose, vs DMSO

In the case of `CC=C(C)C(O)C(C)C=C(C)C=CCC(C)=CCc1nc(OC)c(OC)c(O)c1C` (centres unmarked) [Piericidin, Piericidin A], the “PDH-dependent labeling of aspartate and malate” value (143B cells; control and PC KO cells) was “clearly reduced”, the “PC-mediated labeling of TCA cycle intermediates” value (143B cells; particularly aspartate and malate) was “marked induction” and the “Malate M+3/M+2 ratio, higher” value (143B cells; [3]) was ~ 7 fold. For the same compound, the “aspartate M+3/M+2 ratio, higher” value (143B cells; [3]) was ~ 10 fold, the ATP levels (mouse cortical neurons [1]) was “maintained” and the NADPH levels (mouse cortical neurons [2]; 100 nM, 24 h) was “marked drop”. The “NADPH/NADP+ levels” value (mouse cortical neurons [2]; low glucose (2,5 mM)) was “rapid decline” and the intracellular malate levels (PC KO and ACLY KO cells) was “parallel decrease”.
